One assay concerns TT cells. Description: TT Cell Proliferation Assay (WST-8, 8 days). It counts as cell-based. The settings on record: Homo sapiens, TT, 192 h, growth inhibition in TT cells, read-out: TT Cellular Activity. Here is the method: Compounds disclosed herein were tested for the inhibition of RET by a cancer cell proliferation assay commonly known as MTT assay. In this assay, a complete media was prepared by adding 10% fetal bovine serum to RPMI-1640 medium (Life technology). TT cells were added to each of 88 wells of a 96 well plate at a seeding density of 6,000 cells/well/90 μL. The cells were allowed to attach to the plate by incubating at 37° C. for 24 hours. The compound was dissolved in DMSO (SIGMA). A solution of test compound was prepared in complete media by serial dilution to obtain the following concentrations: 50 μM, 15 μM, 5 μM, 1.5 μM, 0.5 μM, 0.15 μM, 0.05 μM, 0.015 μM and 0.005 μM. The test compound solution (10 μL) was added to each of 80 cell-containing wells. The final concentrations of the compound were following: 5 μM, 1.5 μM, 0.5 μM, 0.15 μM, 0.05 μM, 0.015 μM, 0.005 μM, 0.0015 μM and 0.0005 μM. The final concentration of DMSO is 0.5%. To the 8 remaining cell-containing wells, only complete media (containing 0.5% DMSO) was added to form a control group in order to measure maximal proliferation. To the remaining 8 empty wells, complete media was added to for a vehicle control group in order to measure background. The plates were incubated at 37° C. for 8 days. 10 μL WST-8 solution (DOJINDO, Cell Counting KIT-8) was added to each well. The plates were further incubated at 37° C. for 5 hours, and then read for the absorbance using a microplate reader at 450 nm. The IC50 was calculated using GraphPad Prism.
(Tetrazolium assays rely on reduction of a dye to a coloured formazan, in cell work by metabolically active cells.)

The next assay addresses T1, human RET kinase (Homo sapiens, UniProt P07949).
T1 construct: purchased Carna 08-159
The assay is described as follows: RET Kinase Assay (LanthaScreen TR-FRET enzymatic assay). Type of assay: biochemical. Conditions: 7 nM RET, 23 μM ATP. In outline: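 TR-FRET enzymatic read-out using 23 μM ATP, 3 μM FAM-P2 substrate and 7 nM human RET, after 15-min compound pretreatment at room temperature and a 1 h reaction at 28° C in HEPES pH 7.5 buffer. Percent of DMSO control fitted to nonlinear sigmoid curves for IC50.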
(In general: TR-FRET usually uses a lanthanide donor and a delayed reading to cut background.)

The target in a further assay is T2, human KDR kinase (Homo sapiens, UniProt P35968).
T2 construct: purchased Carna 08-191
The assay is described as follows: KDR Kinase Assay (LanthaScreen TR-FRET enzymatic assay). It counts as biochemical. Conditions: 1.2 nM KDR, 92 μM ATP. In outline:
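TR-FRET enzymatic format: after 15-min room-temperature compound pretreatment, 1.2 nM human KDR phosphorylated 3 μM FAM-P22 with 92 μM ATP (HEPES pH 7.5, 28° C., one hour). Reactions were quenched with EDTA buffer. IC50 came from nonlinear sigmoid fits of percent-of-vehicle signal ratios.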

Where only a bound is given, the exact number is not on record here.

T2 sequence (P35968 20-1356): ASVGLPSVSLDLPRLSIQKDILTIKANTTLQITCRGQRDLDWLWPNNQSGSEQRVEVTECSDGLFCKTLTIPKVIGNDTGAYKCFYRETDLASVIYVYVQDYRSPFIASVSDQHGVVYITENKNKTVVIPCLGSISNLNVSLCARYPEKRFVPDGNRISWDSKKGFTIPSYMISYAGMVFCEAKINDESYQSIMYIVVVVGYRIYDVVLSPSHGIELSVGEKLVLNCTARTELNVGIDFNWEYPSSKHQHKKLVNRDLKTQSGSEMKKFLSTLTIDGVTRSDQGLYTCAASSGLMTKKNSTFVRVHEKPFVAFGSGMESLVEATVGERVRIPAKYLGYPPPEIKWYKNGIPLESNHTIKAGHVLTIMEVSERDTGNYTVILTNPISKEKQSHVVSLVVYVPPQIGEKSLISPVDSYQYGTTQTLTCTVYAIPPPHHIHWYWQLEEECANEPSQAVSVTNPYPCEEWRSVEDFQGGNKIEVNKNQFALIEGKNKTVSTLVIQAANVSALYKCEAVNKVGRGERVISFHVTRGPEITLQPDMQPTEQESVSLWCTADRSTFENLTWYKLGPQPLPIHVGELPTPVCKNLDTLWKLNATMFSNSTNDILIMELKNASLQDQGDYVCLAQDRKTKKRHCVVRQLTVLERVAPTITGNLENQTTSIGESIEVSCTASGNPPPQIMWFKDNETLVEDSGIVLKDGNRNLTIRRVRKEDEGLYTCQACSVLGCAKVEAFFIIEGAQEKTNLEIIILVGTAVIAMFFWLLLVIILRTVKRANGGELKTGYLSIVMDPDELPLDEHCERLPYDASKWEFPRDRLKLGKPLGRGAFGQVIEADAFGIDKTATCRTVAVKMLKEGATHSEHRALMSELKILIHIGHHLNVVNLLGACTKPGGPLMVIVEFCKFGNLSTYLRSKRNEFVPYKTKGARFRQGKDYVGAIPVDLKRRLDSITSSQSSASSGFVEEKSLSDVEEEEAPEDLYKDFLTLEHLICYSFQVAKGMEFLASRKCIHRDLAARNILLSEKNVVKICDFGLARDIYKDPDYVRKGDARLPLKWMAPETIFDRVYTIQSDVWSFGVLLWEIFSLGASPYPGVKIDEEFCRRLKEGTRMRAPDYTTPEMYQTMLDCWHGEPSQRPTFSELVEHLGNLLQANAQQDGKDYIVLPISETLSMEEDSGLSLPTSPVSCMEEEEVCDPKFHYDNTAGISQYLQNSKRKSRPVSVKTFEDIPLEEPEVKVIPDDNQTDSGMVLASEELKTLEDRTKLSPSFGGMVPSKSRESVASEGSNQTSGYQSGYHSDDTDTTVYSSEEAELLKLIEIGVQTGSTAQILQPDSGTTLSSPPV
T1 sequence (P07949 29-1114): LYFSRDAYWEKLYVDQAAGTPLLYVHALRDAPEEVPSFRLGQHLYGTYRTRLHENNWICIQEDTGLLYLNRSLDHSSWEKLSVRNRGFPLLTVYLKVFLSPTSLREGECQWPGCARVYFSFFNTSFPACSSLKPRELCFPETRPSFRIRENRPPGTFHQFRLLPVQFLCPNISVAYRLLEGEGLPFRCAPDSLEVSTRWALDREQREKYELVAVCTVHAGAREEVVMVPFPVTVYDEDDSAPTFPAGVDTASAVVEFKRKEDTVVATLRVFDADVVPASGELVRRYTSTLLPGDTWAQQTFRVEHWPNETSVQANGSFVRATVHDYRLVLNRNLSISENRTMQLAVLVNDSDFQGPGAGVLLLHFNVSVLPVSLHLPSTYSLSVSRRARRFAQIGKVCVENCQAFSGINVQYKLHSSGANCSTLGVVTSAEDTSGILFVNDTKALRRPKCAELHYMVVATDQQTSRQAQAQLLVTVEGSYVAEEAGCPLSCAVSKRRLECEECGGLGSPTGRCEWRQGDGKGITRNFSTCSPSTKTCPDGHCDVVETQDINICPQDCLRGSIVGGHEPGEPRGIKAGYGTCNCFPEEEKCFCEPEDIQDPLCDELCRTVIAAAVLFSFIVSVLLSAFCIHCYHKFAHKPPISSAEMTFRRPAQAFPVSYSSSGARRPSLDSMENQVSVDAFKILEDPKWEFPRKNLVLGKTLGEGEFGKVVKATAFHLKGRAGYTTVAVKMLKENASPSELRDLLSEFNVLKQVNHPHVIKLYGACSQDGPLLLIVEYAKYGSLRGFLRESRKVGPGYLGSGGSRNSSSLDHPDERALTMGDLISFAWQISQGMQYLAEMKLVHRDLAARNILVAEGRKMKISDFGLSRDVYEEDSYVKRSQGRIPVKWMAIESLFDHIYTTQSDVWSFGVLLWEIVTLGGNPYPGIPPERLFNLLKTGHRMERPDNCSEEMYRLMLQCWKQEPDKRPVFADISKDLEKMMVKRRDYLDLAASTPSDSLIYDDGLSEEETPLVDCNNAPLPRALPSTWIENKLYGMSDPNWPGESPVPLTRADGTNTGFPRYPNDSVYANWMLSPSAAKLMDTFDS

On to `CCOc1cc(-c2ccc(N3C[C@@H]4C[C@@](C)(NC(=O)CC(C)C)C[C@@H]4C3)nc2)c2c(C#N)cnn2c1` [Example 62, N-((3aR,5s,6aS)-2-(5-(3-cyano-6-ethoxypyrazolo[1,5-a]pyridin-4-yl)pyridin-2-yl)-5-methyloctahydrocyclopenta[c]pyrrol-5-yl)-3-methylbutanamide], for which the IC50 in the assay with TT cells was 10 to 50 nM; on human RET kinase, at most 10 nM; on human KDR kinase, 50 to 100 nM.

For the compound `CC(C)(O)COc1cc(-c2ccc(N3C[C@@H]4CN(S(=O)(=O)c5c(F)cccc5Cl)C[C@@H]4C3)nc2)c2c(C#N)cnn2c1` [Example 92, 4-(6-((3aR,6aS)-5-((2-chloro-6-fluorophenyl)sulfonyl)hexahydropyrrolo[3,4-c]pyrrol-2(1H)-yl)pyridin-3-yl)-6-(2-hydroxy-2-methylpropoxy)pyrazolo[1,5-a]pyridine-3-carbonitrile], the IC50 in the assay on TT cells is 10 to 50 nM; on human RET kinase, at most 10 nM; at human KDR kinase, 10 to 50 nM.

Turning to `Cn1cc(-c2cc(-c3ccc(N4C[C@@H]5[C@H](C4)[C@H]5NC(=O)C(N)c4ccccc4)nc3)c3c(C#N)cnn3c2)cn1` (stereo partly drawn) [Example 32, 2-amino-N-((1R,5S,6s)-3-(5-(3-cyano-6-(1-methyl-1H-pyrazol-4-yl)pyrazolo[1,5-a]pyridin-4-yl)pyridin-2-yl)-3-azabicyclo[3.1.0]hexan-6-yl)-2-phenylacetamide], the IC50 in the assay with TT cells was at most 10 nM; on human RET kinase it was at most 10 nM; against human KDR kinase it was over 100 nM.

For `CC(C)C(O)C(=O)NC[C@H]1[C@H]2CN(c3ccc(-c4cc(-c5cnn(C)c5)cn5ncc(C#N)c45)cn3)C[C@@H]12` (stereo partly drawn) [Example 77, N-(((1R,5S,6r)-3-(5-(3-cyano-6-(1-methyl-1H-pyrazol-4-yl)pyrazolo[1,5-a]pyridin-4-yl)pyridin-2-yl)-3-azabicyclo[3.1.0]hexan-6-yl)methyl)-2-hydroxy-3-methylbutanamide], the IC50 in the assay on TT cells, against human RET kinase and against human KDR kinase was at most 10 nM throughout.

For `Cc1ccc(Cl)c(C(=O)N[C@H]2[C@@H]3CN(c4ccc(-c5cc(-c6cnn(C)c6)cn6ncc(C#N)c56)cn4)C[C@@H]32)n1` [Example 27, 3-chloro-N-((1R,5S,6s)-3-(5-(3-cyano-6-(1-methyl-1H-pyrazol-4-yl)pyrazolo[1,5-a]pyridin-4-yl)pyridin-2-yl)-3-azabicyclo[3.1.0]hexan-6-yl)-6-methylpicolinamide], the IC50 in the assay on TT cells is 10 to 50 nM; on human RET kinase, at most 10 nM; on human KDR kinase it was 10 to 50 nM.

Consider `CCOc1cc(-c2ccc(N3C[C@@H]4C[C@@](C)(NC(=O)c5c(F)cccc5Cl)C[C@@H]4C3)nc2)c2c(C#N)cnn2c1` [Example 66, 2-chloro-N-((3aR,5s,6aS)-2-(5-(3-cyano-6-ethoxypyrazolo[1,5-a]pyridin-4-yl)pyridin-2-yl)-5-methyloctaliydrocyclopenta[c]pyrrol-5-yl)-6-fluorobenzamide], for which the IC50 in the assay on TT cells was 10 to 50 nM; at human RET kinase, at most 10 nM; against human KDR kinase, 50 to 100 nM.

On to `Cn1cc(-c2cc(-c3ccc(N4C[C@@H]5[C@@H](CNS(=O)(=O)c6c(F)cccc6Cl)[C@@H]5C4)nc3)c3c(C#N)cnn3c2)cn1` [Example 74, 2-chloro-N-(((1R,5S,6r)-3-(5-(3-cyano-6-(1-methyl-H-pyrazol-4-yl)pyrazolo[1,5-a]pyridin-4-yl)pyridin-2-yl)-3-azabicyclo[3.1.0]hexan-6-yl)methyl)-6-fluorobenzenesulfonamide], for which the IC50 in the assay on TT cells was 10 to 50 nM; against human RET kinase, at most 10 nM; at human KDR kinase it was 10 to 50 nM.

As for `CCOc1cc(-c2cnc(N3C[C@@H]4C[C@@](C)(NC(=O)c5ncccc5Cl)C[C@@H]4C3)cn2)c2c(C#N)cnn2c1` [Example 60, 3-chloro-N-((3aR,5s,6aS)-2-(5-(3-cyano-6-ethoxypyrazolo[1,5-a]pyridin-4-yl)pyrazin-2-yl)-5-methyloctahydrocyclopenta[c]pyrrol-5-yl)picolinamide], the figures for the IC50 with TT cells, against human RET kinase and on human KDR kinase were 10 to 50 nM, at most 10 nM and over 100 nM, respectively.

Consider `Cn1ccc(-c2cc(-c3ccc(N4C[C@@H]5C[C@@](C)(NS(=O)(=O)c6c(F)cccc6Cl)C[C@@H]5C4)nc3)c3c(C#N)cnn3c2)n1` [Example 178, 2-chloro-N-((3aR,5s,6aS)-2-(5-(3-cyano-6-(1-methyl-1H-pyrazol-3-yl)pyrazolo[1,5-a]pyridin-4-yl)pyridin-2-yl)-5-methyloctahydrocyclopenta[c]pyrrol-5-yl)-6-fluorobenzenesulfonamide], for which the IC50 in the assay on TT cells is at most 10 nM; at human RET kinase, at most 10 nM; on human KDR kinase, 10 to 50 nM.

Take `COc1ccc(C(=O)N2C[C@@H]3CN(c4ccc(-c5cc(-c6cnn(C)c6)cn6ncc(C#N)c56)cn4)C[C@@H]3C2)cn1` [Example 1, 4-(6-((3aR,6aS)-5-(6-methoxynicotinoyl)hexahydropyrrolo[3,4-c]pyrrol-2(1H)-yl)pyridin-3-yl)-6-(1-methyl-1H-pyrazol-4-yl)pyrazolo[1,5-a]pyridine-3-carbonitrile]: the IC50 with TT cells was 10 to 50 nM; on human RET kinase it was at most 10 nM; against human KDR kinase, 10 to 50 nM.

`Cc1cccc(Cl)c1C(=O)NC[C@@H]1[C@H]2CN(c3ccc(-c4cc(-c5cnn(C)c5)cn5ncc(C#N)c45)cn3)C[C@@H]12` [Example 185, 2-chloro-N-(((1R,5S,6s)-3-(5-(3-cyano-6-(1-methyl-1H-pyrazol-4-yl)pyrazolo[1,5-a]pyridin-4-yl)pyridin-2-yl)-3-azabicyclo[3.1.0]hexan-6-yl)methyl)-6-methylbenzamide]: the IC50 was 10 to 50 nM in the assay with TT cells, at most 10 nM on human RET kinase and at most 10 nM against human KDR kinase.

For the compound `COc1cc(-c2ccc(N3C[C@@H]4[C@H](C3)[C@H]4NC(=O)c3ncccc3Cl)nc2)c2c(C#N)cnn2c1` [Example 39, 3-chloro-N-((1R,5S,6s)-3-(5-(3-cyano-6-methoxypyrazolo[1,5-a]pyridin-4-yl)pyridin-2-yl)-3-azabicyclo[3.1.0]hexan-6-yl)picolinamide], the IC50 in the assay with TT cells is over 100 nM; at human RET kinase it was 50 to 100 nM; at human KDR kinase, over 100 nM.

Turning to `CCOc1cc(-c2ccc(N3C[C@@H]4C[C@@](C)(NC(=O)c5cc(F)ccc5Cl)C[C@@H]4C3)nc2)c2c(C#N)cnn2c1` [Example 68, 2-chloro-N-((3aR,5s,6aS)-2-(5-(3-cyano-6-ethoxypyrazolo[1,5-a]pyridin-4-yl)pyridin-2-yl)-5-methyloctahydrocyclopenta[c]pyrrol-5-yl)-5-fluorobenzamide], the IC50 in the assay on TT cells is 10 to 50 nM; against human RET kinase, at most 10 nM; against human KDR kinase, 50 to 100 nM.

Regarding `Cn1cc(-c2cc(-c3ccc(N4C[C@@H]5C[C@@](C)(NC(=O)c6c(F)cccc6Cl)C[C@@H]5C4)nc3)c3c(C#N)cnn3c2)cn1` [Example 57, 2-chloro-N-((3aR,5s,6aS)-2-(5-(3-cyano-6-(1-methyl-1H-pyrazol-4-yl)pyrazolo[1,5-a]pyridin-4-yl)pyridin-2-yl)-5-methyloctahydro-cyclopenta[c]pyrrol-5-yl)-6-fluorobenzamide], the IC50 in the assay with TT cells is at most 10 nM; against human RET kinase it was 10 to 50 nM; at human KDR kinase, over 100 nM.

Consider `CC(C)C(O)C(=O)N[C@@H]1[C@@H]2CN(c3ccc(-c4cc(-c5cnn(C)c5)cn5ncc(C#N)c45)cc3)C[C@@H]21` (stereo partly drawn) [Example 17, N-((1R,5S,6r)-3-(4-(3-cyano-6-(1-methyl-1H-pyrazol-4-yl)pyrazolo[1,5-a]pyridin-4-yl)phenyl)-3-azabicyclo[3.1.0]hexan-6-yl)-2-hydroxy-3-methylbutanamide], for which the IC50 with TT cells is 10 to 50 nM; on human RET kinase, at most 10 nM; at human KDR kinase, 10 to 50 nM.

Consider `CCOc1cc(-c2ccc(N3C[C@@H]4C[C@@](C)(NC(=O)c5nc(C)ccc5Cl)C[C@@H]4C3)nc2)c2c(C#N)cnn2c1` [Example 67, 3-chloro-N-((3aR,5s,6aS)-2-(5-(3-cyano-6-ethoxypyrazolo[1,5-a]pyridin-4-yl)pyridin-2-yl)-5-methyloctahydrocyclopenta[c]pyrrol-5-yl)-6-methylpicolinaniide], for which the IC50 is 50 to 100 nM in the assay with TT cells, at most 10 nM against human RET kinase and over 100 nM against human KDR kinase.

These data come from patent US20220220128A1, “HETEROCYCLIC COMPOUNDS AS KINASE INHIBITORS, COMPOSITIONS COMPRISING THE HETEROCYCLIC COMPOUND, AND METHODS OF USE THEREOF” (JS Innopharm (Shanghai) Ltd, priority 2019, published 2022).
